Source: patent US11304974B2, “Nanosystems comprising silver and antibiotics and their use for the treatment of bacterial infections” (priority 2017, dated 2022)

How the values were obtained:
E. coli ATCC 8739 = assay: Agar diffusion antibiogram (Example 1); type: cell-based, Escherichia coli; details: concentration 50 μg/ml
Experimental: (§1) From the stock cultures, which were maintained at −80±5° C., revitalization of the strains (TSB, TSA and blood agar cultures, incubation at 37° C., 24 h) and preparation of working cultures (maintenance at 5° C.±3° C.) was carried out.
(§2) The study of microbial activity of the products was performed by the agar diffusion method (antibiograms). Preliminary experiments were performed to adjust the concentration of each strain to obtain a homogeneous field, and select the appropriate culture medium (in this case, Mueller Hinton agar). Whenever possible, large Petri plates (135 mm diameter) were used, but when the halo was too large, several plates of 90 mm diameter were used to test all the products. […] Addition of 1-2 ml of the corresponding dilution to sterile Petri plates (depending on size) and then pouring Mueller Hinton agar, tempered to 45° C. Allowing the agar to solidify at room temperature and then practicing wells in which the products to be tested will be placed. • Preparing the test substances in the appropriate concentration (suspension of 1 mg/ml in sterile water and serial dilutions). Placing 50 μl of the chosen concentration in each well (a previous study was done to determine which concentration provided the most appropriate halos in each strain). As a positive control, Penicillin G (at the same concentration) was used. • Incubation of the plates at 37±1° C. for 24 hours. Then the inhibition halos observed in each well were measured and gathered in Table 2 below.

E. coli C93 BLEE+ [1] = assay: Agar diffusion antibiogram (Example 1); type: cell-based, Escherichia coli; details: by order of Table 1 E. coli C93 BLEE+; concentration 50 μg/ml
Experimental: as §1, §2

E. coli H24 BLEE+ [2] = assay: Agar diffusion antibiogram (Example 1); type: cell-based, Escherichia coli; details: by order of Table 1 E. coli H24 BLEE+; concentration 50 μg/ml
Experimental: as §1, §2

E. coli W207 BLEE+ [3] = assay: Agar diffusion antibiogram (Example 1); type: cell-based, Escherichia coli; details: by order of Table 1 E. coli W207 BLEE+; concentration 50 μg/ml
Experimental: as §1, §2

E. coli not BLEE = assay: Agar diffusion antibiogram (Example 1); type: cell-based, Escherichia coli; details: concentration 50 μg/ml
Experimental: as §1, §2

C. freundii H44 BLEE+ [4] = assay: Agar diffusion antibiogram (Example 1); type: cell-based, Citrobacter freundii; details: by order of Table 1 C. freundii H44 BLEE+; concentration 50 μg/ml
Experimental: as §1
as §2, with “As a positive control, Penicillin G (at the same concentration) was used. • Incubation of the plates at 37±1° C. for 24 hours.” left out

K. pneumoniae (BLEE+) = assay: Agar diffusion antibiogram (Example 1); type: cell-based, Klebsiella pneumoniae; details: by order of Table 1 K. pneumoniae BLEE+ clinical isolate; concentration 200 μg/ml
Experimental: as §1
as §2, with “As a positive control, Penicillin G (at the same concentration) was used. • Incubation of the plates at 37±1° C. for 24 hours.” left out

[5] = system: K. pneumoniae ATCC 700603; assay: Agar diffusion antibiogram (Example 1); type: cell-based, Klebsiella pneumoniae; details: by order of Table 1 K. pneumoniae ATCC 700603; concentration 200 μg/ml
Experimental: as §1
as §2, with “As a positive control, Penicillin G (at the same concentration) was used. • Incubation of the plates at 37±1° C. for 24 hours.” left out

Ps. aeruginosa MEXR [6] = assay: Agar diffusion antibiogram (Example 1); type: cell-based, Pseudomonas aeruginosa; details: by order of Table 1 Ps. aeruginosa MEXR; concentration 50 μg/ml
Experimental: as §1, §2

Ps. aeruginosa OPRD [7] = assay: Agar diffusion antibiogram (Example 1); type: cell-based, Pseudomonas aeruginosa; details: by order of Table 1 Ps. aeruginosa OPRD; concentration 50 μg/ml
Experimental: as §1, §2

Ps. aeruginosa PAO1 [8] = assay: Agar diffusion antibiogram (Example 1); type: cell-based, Pseudomonas aeruginosa; details: by order of Table 1 Ps. aeruginosa PAO1; concentration 50 μg/ml
Experimental: as §1, §2

Ps. aeruginosa VIM2 [9] = assay: Agar diffusion antibiogram (Example 1); type: cell-based, Pseudomonas aeruginosa; details: by order of Table 1 Ps. aeruginosa VIM2; concentration 50 μg/ml
Experimental: as §1, §2

E. coli AC8 BLEE+ = assay: Agar diffusion antibiogram (Example 2); type: cell-based, Escherichia coli; details: concentration 50 μg/ml
Experimental: as §1
(§3) The study of microbial activity of the products was performed by the agar diffusion method (antibiograms). Preliminary experiments were performed to adjust the concentration of each strain to obtain a homogeneous field, and the appropriate culture medium (in this case, Mueller Hinton agar) was selected. Whenever possible, large Petri plates (diameter of 135 mm) were used, but when the halo was too large, several plates of 90 mm diameter were used to test all the products. […] Addition of 1-2 ml of the corresponding dilution to sterile Petri plates (depending on size) and then pouring Mueller Hinton agar, tempered to 45° C. Allowing the agar to solidify at room temperature and then practicing wells in which the products will be placed to be tested. • Preparing the test substances in the appropriate concentration (suspension of 1 mg/ml in sterile water and serial dilutions). Placing 50 μl of the chosen concentration in each well (a previous study was done to see which concentration provided the most appropriate halos in each strain). As a positive control Penicillin G (at the same concentration) was used. • Incubation of the plates at 3±1° C. for 24 hours. Then the inhibition halos observed in each well were measured and gathered in Table 4 below.

E. coli C93 BLEE+ [10] = assay: Agar diffusion antibiogram (Example 2); type: cell-based, Escherichia coli; details: concentration 50 μg/ml
Experimental: as §1, §3

E. coli H24 BLEE+ [11] = assay: Agar diffusion antibiogram (Example 2); type: cell-based, Escherichia coli; details: concentration 50 μg/ml
Experimental: as §1, §3

E. coli W207 BLEE+ [12] = assay: Agar diffusion antibiogram (Example 2); type: cell-based, Escherichia coli; details: concentration 50 μg/ml
Experimental: as §1, §3

C. freundii H44 BLEE+ [13] = assay: Agar diffusion antibiogram (Example 2); type: cell-based, Citrobacter freundii; details: concentration 50 μg/ml
Experimental: as §1
as §3, with “As a positive control Penicillin G (at the same concentration) was used. • Incubation of the plates at 3±1° C. for 24 hours.” left out

[14] = system: K. pneumoniae ATCC 700603; assay: Agar diffusion antibiogram (Example 2); type: cell-based, Klebsiella pneumoniae; details: concentration 200 μg/ml
Experimental: as §1
as §3, with “As a positive control Penicillin G (at the same concentration) was used. • Incubation of the plates at 3±1° C. for 24 hours.” left out

K. pneumoniae BLEE+ = assay: Agar diffusion antibiogram (Example 2); type: cell-based, Klebsiella pneumoniae; details: concentration 200 μg/ml
Experimental: as §1
as §3, with “As a positive control Penicillin G (at the same concentration) was used. • Incubation of the plates at 3±1° C. for 24 hours.” left out

Ps. aeruginosa DACB = assay: Agar diffusion antibiogram (Example 2); type: cell-based, Pseudomonas aeruginosa; details: concentration 50 μg/ml
Experimental: as §1, §3

Ps. aeruginosa MEXR [15] = assay: Agar diffusion antibiogram (Example 2); type: cell-based, Pseudomonas aeruginosa; details: concentration 50 μg/ml
Experimental: as §1, §3

Ps. aeruginosa OPRD [16] = assay: Agar diffusion antibiogram (Example 2); type: cell-based, Pseudomonas aeruginosa; details: concentration 50 μg/ml
Experimental: as §1, §3

Ps. aeruginosa PAO1 [17] = assay: Agar diffusion antibiogram (Example 2); type: cell-based, Pseudomonas aeruginosa; details: concentration 50 μg/ml
Experimental: as §1, §3

Ps. aeruginosa VIM2 [18] = assay: Agar diffusion antibiogram (Example 2); type: cell-based, Pseudomonas aeruginosa; details: concentration 50 μg/ml
Experimental: as §1, §3

Measured: Inhibition halos

CC1(C)S[C@@H]2[C@H](NC(=O)Cc3ccccc3)C(=O)N2[C@H]1C(=O)O [PG, penicillin G]
21 mm: E. coli ATCC 8739 | E. coli not BLEE
9 mm: Ps. aeruginosa DACB
<1 mm: all other assays above
